# Results from ChEMBL document CHEMBL1201862, “PubChem BioAssay data set” (2004).
# Activity calls are given as the source filed them.
# Key:
# [1] = target: T1, Heat shock factor protein 1 (Mus musculus, UniProt P38532); assay: HSF1 potentiators in luciferase reporter cells, confirmation, cell-based, NIH3T3, luminescence, dose retest (AID 435004); assay type: functional;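 further: stress induced by proteasome inhibitor MG132 added 30 min after compound; luciferase reporter driven by HSF1 response element in NIH3T3 cells; actives raise luminescence as potentiators of the MG132 stress response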
# T1 sequence (P38532 whole entry): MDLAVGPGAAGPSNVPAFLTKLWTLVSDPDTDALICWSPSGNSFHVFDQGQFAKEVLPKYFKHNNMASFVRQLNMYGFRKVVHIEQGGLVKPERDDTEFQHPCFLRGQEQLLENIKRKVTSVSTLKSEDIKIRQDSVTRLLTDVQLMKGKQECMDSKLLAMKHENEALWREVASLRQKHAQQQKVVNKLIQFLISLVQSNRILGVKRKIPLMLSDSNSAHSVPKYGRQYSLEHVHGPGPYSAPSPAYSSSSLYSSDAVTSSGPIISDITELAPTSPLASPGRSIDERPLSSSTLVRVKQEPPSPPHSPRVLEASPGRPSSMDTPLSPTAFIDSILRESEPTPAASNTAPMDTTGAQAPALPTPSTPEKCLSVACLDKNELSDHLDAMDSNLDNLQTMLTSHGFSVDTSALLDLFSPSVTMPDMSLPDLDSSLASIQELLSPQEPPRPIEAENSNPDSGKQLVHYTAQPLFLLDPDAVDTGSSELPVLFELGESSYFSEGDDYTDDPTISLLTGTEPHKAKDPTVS
# [2] = target: T2, Rac GTPase-activating protein 1 (Homo sapiens, UniProt Q9H0H5); assay: MgcRacGAP GTPase-activating activity inhibitors, confirmation, biochemical, ADP Hunter fluorescence, primary and confirmatory (AID 624330); assay type: functional
# T2 sequence (Q9H0H5 whole entry): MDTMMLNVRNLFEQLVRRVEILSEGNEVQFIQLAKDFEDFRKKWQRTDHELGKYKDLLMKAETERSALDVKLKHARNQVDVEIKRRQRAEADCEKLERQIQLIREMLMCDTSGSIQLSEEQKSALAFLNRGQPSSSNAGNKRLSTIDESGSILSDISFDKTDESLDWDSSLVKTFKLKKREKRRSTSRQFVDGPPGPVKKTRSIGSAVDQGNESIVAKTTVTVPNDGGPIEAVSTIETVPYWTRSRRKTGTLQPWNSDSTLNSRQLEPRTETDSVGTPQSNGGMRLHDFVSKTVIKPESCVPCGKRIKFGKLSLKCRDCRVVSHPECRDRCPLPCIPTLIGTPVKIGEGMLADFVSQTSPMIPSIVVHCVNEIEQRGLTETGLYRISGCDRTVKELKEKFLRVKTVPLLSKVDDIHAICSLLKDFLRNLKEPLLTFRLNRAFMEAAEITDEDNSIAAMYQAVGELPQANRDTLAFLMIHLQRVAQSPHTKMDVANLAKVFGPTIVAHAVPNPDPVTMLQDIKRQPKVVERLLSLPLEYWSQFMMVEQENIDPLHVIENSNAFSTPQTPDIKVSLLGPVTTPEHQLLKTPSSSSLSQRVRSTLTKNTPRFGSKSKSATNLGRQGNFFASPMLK
# [3] = target: T3, Polyadenylate-binding protein 1 (Homo sapiens, UniProt P11940); assay: PABP1 MLLE–PAM2 interaction inhibitors, dose response, miRNA deadenylation inhibitor project, biochemical, fluorescence polarization, Cy5-PAM2 peptide, secondary (AID 602260); assay type: functional; conditions: read-out: IC50_Mean
# [4] = target: T3, Polyadenylate-binding protein 1; assay: PABP1 MLLE–PAM2 binding inhibitor potency, dose response, biochemical, fluorescence polarization, FITC-PAM2 peptide (AID 602259); assay type: functional; conditions: read-out: IC50_Mean
# [5] = target: Cytochrome P450 2D6 (Homo sapiens, UniProt P10635);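 further: CYP2D6 member of a cytochrome P450 panel assay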
# [6] = target: Cytochrome P450 2C9 (Homo sapiens, UniProt P11712)
# [7] = target: Cytochrome P450 2C19 (Homo sapiens, UniProt P33261); assay: Cytochrome panel assay with activity outcomes. Panel member name: p450-cyp2c19 Compounds with AC50 equal or less than 10 uM are considered active; assay type: functional; conditions: read-out: AC50
# [8] = target: T4, Cytochrome P450 1A2 (Homo sapiens, UniProt P05177);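 further: PubChem cytochrome P450 panel assay, CYP1A2 panel member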
# T4 sequence (P05177 whole entry): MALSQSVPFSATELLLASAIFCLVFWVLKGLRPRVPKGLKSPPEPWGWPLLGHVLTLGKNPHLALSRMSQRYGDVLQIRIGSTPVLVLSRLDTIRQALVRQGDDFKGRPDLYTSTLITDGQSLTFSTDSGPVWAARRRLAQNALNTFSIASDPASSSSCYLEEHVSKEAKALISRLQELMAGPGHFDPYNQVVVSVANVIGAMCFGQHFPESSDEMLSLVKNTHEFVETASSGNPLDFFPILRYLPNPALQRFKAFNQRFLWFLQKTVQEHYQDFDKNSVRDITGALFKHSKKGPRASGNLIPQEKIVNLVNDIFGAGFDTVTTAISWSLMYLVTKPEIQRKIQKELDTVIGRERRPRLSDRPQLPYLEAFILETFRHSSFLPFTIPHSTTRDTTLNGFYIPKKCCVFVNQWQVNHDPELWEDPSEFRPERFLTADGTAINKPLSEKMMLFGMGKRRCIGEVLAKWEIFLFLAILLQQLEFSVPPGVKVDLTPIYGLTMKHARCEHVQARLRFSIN
# [9] = target: Cytochrome P450 3A4 (Homo sapiens, UniProt P08684);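 further: CYP3A4 tested as one member of a cytochrome P450 panel screen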
# [10] = tested on: H4; assay: Luminescence Cell-Based Dose Response HTS to Identify Activators of 5'UTR Stem-Loop Driven Prion Protein mRNA Translation in H4 Neuroglioblastoma Cells. [Related pubchem assays: 1829 (Project Summary), 1814 (Primary HTS)]; assay type: functional; conditions: Homo sapiens
# [11] = Luminescence Cell-Based Dose Response HTS to Identify Activators of Luciferase Translation or Activity in H4 […] Cells. [Related pubchem assays: 1829 (Project Summary), 1814 (Primary HTS)]; assay type: functional
# Chain of Cytochrome P450 2C9 (P11712 whole entry): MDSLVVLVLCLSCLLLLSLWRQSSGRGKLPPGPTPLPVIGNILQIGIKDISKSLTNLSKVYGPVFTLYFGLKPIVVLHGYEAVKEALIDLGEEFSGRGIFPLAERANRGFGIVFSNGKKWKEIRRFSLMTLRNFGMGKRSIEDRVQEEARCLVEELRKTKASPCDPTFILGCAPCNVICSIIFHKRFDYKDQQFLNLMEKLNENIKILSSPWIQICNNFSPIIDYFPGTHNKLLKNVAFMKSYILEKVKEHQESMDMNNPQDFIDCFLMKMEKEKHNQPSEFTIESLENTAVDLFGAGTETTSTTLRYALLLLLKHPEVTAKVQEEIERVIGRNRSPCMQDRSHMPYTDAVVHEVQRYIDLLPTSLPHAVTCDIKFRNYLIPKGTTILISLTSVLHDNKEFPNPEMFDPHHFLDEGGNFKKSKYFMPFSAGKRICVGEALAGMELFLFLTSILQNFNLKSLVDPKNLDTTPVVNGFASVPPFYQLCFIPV
# Chain of Cytochrome P450 2C19 (P33261 whole entry): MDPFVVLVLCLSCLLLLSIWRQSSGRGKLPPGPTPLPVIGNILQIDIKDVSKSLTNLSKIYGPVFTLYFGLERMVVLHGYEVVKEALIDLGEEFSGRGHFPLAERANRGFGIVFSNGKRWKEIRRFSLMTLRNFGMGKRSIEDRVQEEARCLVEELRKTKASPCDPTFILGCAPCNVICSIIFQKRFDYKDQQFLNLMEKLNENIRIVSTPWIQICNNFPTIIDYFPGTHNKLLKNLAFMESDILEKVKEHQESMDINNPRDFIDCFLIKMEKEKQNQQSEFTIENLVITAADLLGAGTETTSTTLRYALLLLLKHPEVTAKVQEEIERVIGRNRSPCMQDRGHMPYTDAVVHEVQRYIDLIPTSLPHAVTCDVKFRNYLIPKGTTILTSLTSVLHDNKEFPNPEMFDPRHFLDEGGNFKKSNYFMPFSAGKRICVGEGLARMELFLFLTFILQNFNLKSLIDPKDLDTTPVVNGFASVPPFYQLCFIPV
# Chain of Cytochrome P450 2D6 (P10635 whole entry): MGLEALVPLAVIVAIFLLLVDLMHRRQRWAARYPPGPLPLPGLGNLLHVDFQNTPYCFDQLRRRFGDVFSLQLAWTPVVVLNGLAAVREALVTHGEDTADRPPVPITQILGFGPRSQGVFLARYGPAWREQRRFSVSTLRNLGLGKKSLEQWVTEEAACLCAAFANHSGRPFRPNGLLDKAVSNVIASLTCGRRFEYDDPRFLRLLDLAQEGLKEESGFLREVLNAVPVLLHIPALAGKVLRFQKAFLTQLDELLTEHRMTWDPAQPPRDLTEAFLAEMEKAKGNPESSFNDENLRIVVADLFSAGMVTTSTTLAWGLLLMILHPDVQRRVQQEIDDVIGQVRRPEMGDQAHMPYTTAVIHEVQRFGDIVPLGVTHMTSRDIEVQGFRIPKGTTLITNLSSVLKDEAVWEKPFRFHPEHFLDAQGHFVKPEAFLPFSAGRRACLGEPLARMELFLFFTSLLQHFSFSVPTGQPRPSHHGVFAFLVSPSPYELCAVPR
# T3 sequence (P11940 whole entry): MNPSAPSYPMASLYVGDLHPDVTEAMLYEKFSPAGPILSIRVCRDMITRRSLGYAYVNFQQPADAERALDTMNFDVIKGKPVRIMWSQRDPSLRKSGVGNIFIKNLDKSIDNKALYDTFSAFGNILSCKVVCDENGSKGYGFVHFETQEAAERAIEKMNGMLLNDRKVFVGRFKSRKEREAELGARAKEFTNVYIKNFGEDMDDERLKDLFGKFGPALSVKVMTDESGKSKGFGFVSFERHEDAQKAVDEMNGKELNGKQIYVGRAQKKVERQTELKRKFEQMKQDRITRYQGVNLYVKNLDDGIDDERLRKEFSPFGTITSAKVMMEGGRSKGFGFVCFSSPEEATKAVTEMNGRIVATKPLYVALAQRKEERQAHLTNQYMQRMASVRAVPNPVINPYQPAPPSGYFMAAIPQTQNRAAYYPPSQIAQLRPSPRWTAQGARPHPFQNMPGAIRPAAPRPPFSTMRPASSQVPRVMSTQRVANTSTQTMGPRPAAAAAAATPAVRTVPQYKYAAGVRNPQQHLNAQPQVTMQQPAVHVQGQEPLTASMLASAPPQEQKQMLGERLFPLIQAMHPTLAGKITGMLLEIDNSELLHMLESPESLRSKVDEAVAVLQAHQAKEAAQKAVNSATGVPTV
# Chain of Cytochrome P450 3A4 (P08684 whole entry): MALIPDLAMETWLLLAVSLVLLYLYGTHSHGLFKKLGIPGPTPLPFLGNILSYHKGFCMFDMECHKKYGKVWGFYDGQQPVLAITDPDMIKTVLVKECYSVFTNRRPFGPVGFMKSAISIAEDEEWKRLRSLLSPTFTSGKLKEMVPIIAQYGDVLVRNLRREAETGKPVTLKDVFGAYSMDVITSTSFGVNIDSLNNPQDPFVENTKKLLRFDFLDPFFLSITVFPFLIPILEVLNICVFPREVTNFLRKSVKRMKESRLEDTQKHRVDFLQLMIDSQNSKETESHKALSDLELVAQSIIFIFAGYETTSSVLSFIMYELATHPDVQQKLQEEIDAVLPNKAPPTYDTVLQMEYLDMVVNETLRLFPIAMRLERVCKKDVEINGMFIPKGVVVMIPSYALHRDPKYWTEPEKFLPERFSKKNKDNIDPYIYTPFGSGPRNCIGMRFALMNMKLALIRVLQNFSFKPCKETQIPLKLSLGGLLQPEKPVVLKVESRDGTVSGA
structure (smiles),measurement,setting,value
CCC1(c2ccccc2)NC(=O)N(CC(=O)NCc2ccccc2OC)C1=O (stereo unspecified),EC50,[1],> 260 µM (inactive)
c1ccc(CN2CCN(CCOCCOc3ccc4c(c3)CCC4)CC2)cc1,IC50,[2],53.6 µM (active)
COc1cc(/C=N/Nc2ccccn2)cc(OC)c1O,IC50,[2],35 µM (active)
Cc1[nH]c2ccccc2c1/C=C(\C#N)C(=O)NCC1CCCO1 (stereo unspecified),EC50,[1],53.1 µM (active)
CC(=O)c1cccc(NC(=S)NC(=O)c2ccccc2Br)c1,IC50,[3],> 66 µM (inactive)
same,IC50,[4],> 66 µM (inactive)
COc1ccccc1N1CCN(Cc2cccc(OC)c2O)CC1,EC50,[1],> 260 µM (inactive)
COc1ccc2[nH]cc(CCNc3cc(-c4cccnc4)ncn3)c2c1,AC50,[5],20 µM (inconclusive)
COc1ccc(CNc2ccnc(-c3cccc(C#N)c3)n2)c(OC)c1,AC50,[6],0.501 µM (inconclusive)
same,AC50,[5],12.6 µM (inconclusive)
Cc1ccc(NC(=O)CN2CCN(C)CC2)cc1Br,IC50,[2],98.5 µM (active)
CCOc1cc(/C=N/NC(=O)C(=O)N2CCCC2)ccc1O,IC50,[2],56.3 µM (active)
CSc1ccccc1NC(=O)CN(C)C(C)C(=O)NCc1ccc2c(c1)OCO2 (stereo unspecified),IC50,[2],46.7 µM (active)
COC(=O)[C@@]1(Cc2ccc(OC)cc2)[C@H]2c3cc(C(=O)N(C)C)n(CCc4c[nH]c5ccc(O)cc45)c3C[C@H]2CN1C(=O)c1ccccc1,AC50,[7],25.1 µM (inconclusive)
same,AC50,[5],15.8 µM (inconclusive)
COc1ccc(NC(=O)Nc2sc(NS(=O)(=O)c3ccccc3)nc2C)cc1,IC50,[3],> 66 µM (inactive)
same,IC50,[4],> 66 µM (inactive)
O=C(c1csnn1)N1CCC2(CC1)CCN(c1ccccc1)CC2,AC50,[5],7.94 µM (inconclusive)
same,AC50,[8],15.8 µM (inconclusive)
CC1(C)CC2=Nc3cc4c(cc3C(c3ccc5c(c3)OCO5)C2=C(O)C1)OCO4 (stereo unspecified),EC50,[1],72 µM (active)
CC(=O)Nc1ccc(S(=O)(=O)Nc2nnc(CC(C)(C)C)s2)cc1,IC50,[3],> 66 µM (inactive)
same,IC50,[4],> 66 µM (inactive)
CCOC(=O)c1c(S(=O)(=O)NCC2CCN(CCc3cccs3)CC2)c(C)n(C)c1C,EC50,[1],> 260 µM (inactive)
COc1cccc(-c2nc(N3CCN(c4ccccc4)CC3)c3ccccc3n2)c1O,EC50,[1],> 260 µM (inactive)
FC(F)(F)c1cc(CN2CCC3(CCNCC3)CC2)cc(C(F)(F)F)c1,AC50,[5],25.1 µM (inconclusive)
same,AC50,[9],31.6 µM (inconclusive)
Cc1ccc2nc(-c3cccnc3)c(NC3CCCCC3)n2c1,IC50,[3],41.4 µM (inactive)
same,IC50,[4],34.7 µM (inactive)
Cc1cc(NC(=O)c2sc3ccccc3c2O)no1,IC50,[2],75.2 µM (active)
CN(Cc1nnc(-c2ccc(F)cc2)o1)c1ccccc1,EC50,[1],> 260 µM (inactive)
O=C(NCCc1ccccc1)c1noc2c1CCc1ccccc1-2,AC50,[6],7.08 µM (inconclusive)
same,AC50,[5],2.51 µM (inconclusive)
COCCn1c(=O)c(-c2ccc(Cl)cc2)nc2cnc(N(C)C)nc21,AC50,[5],0.0794 µM (inconclusive)
CCc1ccc(Nc2ncccc2C#N)cc1,AC50,[5],20 µM (inconclusive)
same,AC50,[9],28.2 µM (inconclusive)
COC(=O)N1C(c2ccccc2)C1c1ccccc1 (stereo unspecified),EC50,[1],> 260 µM (inactive)
N#CC1=C(S)N(c2ccccc2)C(c2ccc(-c3cccc(Cl)c3)o2)NC1=O (stereo unspecified),IC50,[2],181 µM (active)
O=C(OCc1ccccc1F)c1ccc2c(c1)OCCO2,EC50,[10],5.23 µM (active)
same,EC50,[11],1.38 µM (active)
O=C(NCSc1ccccc1)c1ccccc1,IC50,[3],> 66 µM (inactive)
same,IC50,[4],> 66 µM (inactive)
C/C(=N/OC(=O)c1cccc(Cl)c1)c1nccs1,AC50,[7],20 µM (inconclusive)
same,AC50,[5],35.5 µM (inconclusive)
same,AC50,[8],31.6 µM (inconclusive)
Cc1cc(C(=O)CSc2nnnn2C)c(C)n1Cc1ccco1,EC50,[10],> 120 µM (not active)
same,EC50,[11],5.73 µM (active)
CC(C)Cn1c(SCc2nc(O)c3ccccc3n2)nc2ccccc2c1=O,AC50,[5],3.98 µM (inconclusive)
COC1=C(OC)C(=O)c2ccccc2C1=O,AC50,[6],39.8 µM (inconclusive)
same,AC50,[7],31.6 µM (inconclusive)
same,AC50,[5],39.8 µM (inconclusive)
S=C(Nc1ccc2nc(-c3ccccn3)c(-c3ccccn3)nc2c1)N1CCOCC1,IC50,[3],> 66 µM (inactive)
same,IC50,[4],40.3 µM (inactive)
COCCCn1c(C(=O)NC2CCCCC2C)cc2c(=O)n3cccc(C)c3nc21 (stereo unspecified),EC50,[1],> 260 µM (inactive)
FC(F)(F)C(F)(F)C(F)(F)c1nc2nc(Cl)c(Cl)[nH]c-2n1,IC50,[3],> 66 µM (inactive)
same,IC50,[4],> 66 µM (inactive)
CCc1c(O)nc(SCc2nc(O)c3ccccc3n2)nc1O,IC50,[3],> 66 µM (inactive)
same,IC50,[4],> 66 µM (inactive)
COc1ccc(C2Nc3ccccc3C(=O)N2c2ccc(C)cc2)cc1Cn1nnc2ccccc21 (stereo unspecified),EC50,[10],50.7 µM (active)
same,EC50,[11],4.2 µM (active)
COc1cccc(-c2nn(-c3ccccc3)cc2C(=O)n2nnc3ccccc32)c1,EC50,[1],4.15 µM (active)
Cc1onc(-c2ccccc2)c1C(=O)N=C(N)c1ccc(C(F)(F)F)cc1,EC50,[1],> 260 µM (inactive)
CCC(=O)/C=C1/Sc2ccc(OC)cc2N1CCO,IC50,[3],> 66 µM (inactive)
same,IC50,[4],> 66 µM (inactive)
CCCCOC(=O)CCCc1ccc([N+](=O)[O-])cc1[N+](=O)[O-],EC50,[1],> 260 µM (inactive)
CC(=O)c1cccc(/N=C/c2c(O)oc3ccccc3c2=O)c1,EC50,[1],2.8 µM (active)
Sc1nnc2ccccn12,IC50,[2],34 µM (active)
